This note sets out measurements from patent US7544497B2, “Compositions for manipulating the lifespan and stress response of cells and organisms” (President and Fellows of Harvard College, priority 2003, dated 2009).

Series [1] is described as follows: D. melanogaster body mass. The format is in vivo. The conditions noted are these: 10 μM, 15% SY diet. On the procedure: Feeding rate was measured in yw females with the crop-filling assay^27. […] The presence of dye-marked food in the crop was scored in sets of 20 females across five 5-minute intervals. […] Males and females were weighed daily.
The target of the next series is T1, SIRT1 deacetylase (Homo sapiens, UniProt Q96EB6).
T1 construct: purchased BIOMOL
T1 sequence (Q96EB6 1-747): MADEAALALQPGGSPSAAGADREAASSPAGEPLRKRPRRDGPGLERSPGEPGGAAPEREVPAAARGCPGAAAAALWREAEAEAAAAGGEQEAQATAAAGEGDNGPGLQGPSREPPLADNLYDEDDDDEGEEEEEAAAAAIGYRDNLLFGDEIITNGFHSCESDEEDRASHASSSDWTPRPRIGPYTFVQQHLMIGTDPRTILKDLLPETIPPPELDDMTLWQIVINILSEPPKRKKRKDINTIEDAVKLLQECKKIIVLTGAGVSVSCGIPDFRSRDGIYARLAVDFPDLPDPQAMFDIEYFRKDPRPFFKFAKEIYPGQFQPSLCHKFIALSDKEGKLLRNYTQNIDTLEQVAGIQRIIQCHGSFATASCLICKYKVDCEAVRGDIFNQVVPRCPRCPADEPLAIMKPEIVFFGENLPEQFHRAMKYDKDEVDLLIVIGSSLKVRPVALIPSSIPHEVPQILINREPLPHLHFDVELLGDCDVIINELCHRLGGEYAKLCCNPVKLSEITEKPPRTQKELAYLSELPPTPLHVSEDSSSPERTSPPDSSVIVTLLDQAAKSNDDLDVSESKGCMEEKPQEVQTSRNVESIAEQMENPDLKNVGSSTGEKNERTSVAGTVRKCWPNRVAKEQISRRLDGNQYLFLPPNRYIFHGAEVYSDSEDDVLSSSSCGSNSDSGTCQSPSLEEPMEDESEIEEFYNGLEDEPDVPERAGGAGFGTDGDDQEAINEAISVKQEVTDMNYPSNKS
Nature of the series: High-throughput SIRT1 screening protocol (384 well). The following applies: 200 μM NAD+, 5 μM Fluor de Lys-SIRT1 substrate; roughly 50 μM. The series is classed as biochemical. On the procedure: The reaction mixture contains (final): 0.5 units/reaction SIRT1 deacetylase (BIOMOL); 200 μM NAD^+; 5 μM Fluor de Lys-SIRT1 substrate (BIOMOL); buffer (25 mM Tris/Cl, pH 8.0, 137 mM NaCl, 2.7 mM KCl, 1 mM MgCl2, and 1 mg/ml BSA). In addition, a reaction mixture containing no enzyme was made so that each well receiving compound has a corresponding “no enzyme control” well. Reactions were performed in black 384 well plates (NUNC) in a final volume of 25 μl/well.
The reactions were started by combining enzyme and substrate in a reaction mixture immediately prior to aliquoting in plates (or substrate only for “no enzyme control” plates). Mixture were aliquoted to plates using Biotek μFill (Biotek Instruments). Control mixtures were manually added to designated wells. A library compound was added at a desired concentration by pin transfer to both “with enzyme” and “no enzyme” plates. Compounds were added in at least triplicate (with enzyme reaction in duplicate and no enzyme controls) at a final concentration of roughly 50 μM. The plates were incubated at 37° C. for 30-60 minutes. Then 25 μl of 1× Developer II (BIOMOL) plus 2 mM nicotinamide were added to all wells to stop the reactions. The reactions were left for at least 30 minutes at 37° C. for the signal to develop. The plates were read in a microplate-reading fluorometer capable of excitation at a wavelength in the range of 350-380 nm and detection of emitted light in the range of 440-460 nm. A read time of 0.1 sec per well was used.

Regarding `Oc1ccc(/C=C/c2cc(O)cc(O)c2)cc1` [Resveratrol, 3,5,4′-Trihydroxy-trans-stilbene], the body weight result in series [1] is “normal weight”. Moreover, the “activation of SIRT1 (positive controls)” value at SIRT1 deacetylase amounted to 2.2 fold.
